The nature of this experiment: Inhibition of FTase.

`C=C(C(=O)N1C[C@H]2[C@@]3(c4ccc(C)cc4)CC[C@H](c4ccccc43)[C@@]2(C(=O)O)C1)c1ccccc1OC` had an IC50 of 8 nM. That is a single-digit nanomolar value.

Consider `CC[C@@H](C)[C@@H](CO[C@@H](Cc1ccccc1)C(=O)N[C@@H](CCS(C)(=O)=O)C(=O)O)NC[C@@H](N)CS`, for which the IC50 worked out at 1.8 nM.

As for `CC(=O)OCC(=O)[C@@]1(O)C(C)CC2C3CCC4=CC(=O)C=C[C@]4(C)C3=CC[C@@]21C` (stereo not given in full), the IC50 was 40000 nM.

Compound `N#Cc1ccc(Cn2cncc2CN2CCN(c3cccc(Cl)c3)C(=O)C2)cc1Oc1ccc2ccccc2c1` returned an IC50 of 1 nM.

Compound `Cc1cccc2c1[C@@H](O)[C@@H](Cn1ccnc1)S2` yielded an IC50 of 270000 nM.

`N#Cc1ccc2cc1Oc1ccc3cccc(c3c1)N1CCN(CC1=O)Cc1cncn1C2` returned a half-maximal inhibitory concentration (IC50) of 0.1 nM.

Compound `COc1ccccc1CC(=O)N1C[C@@H]2[C@@H]3CC[C@@](c4ccccc4)(c4ccccc43)[C@@H]2C1` came in with an IC50 of 40000 nM.

For the compound `CC[C@@]1(c2cccc(Oc3cc([C@@](C)(N)c4cncn4C)ccc3C#N)c2)CCCCN(C)C1=O`, the IC50 came out at 0.06 nM. This lies in the picomolar range.

`N#Cc1ccc(Cn2cncc2CN2CCN(c3ccccc3)C(=O)C2)cc1` had an IC50 of 5 nM.

`CCCC[C@H]1CN(C(=O)c2cccc3ccccc23)CCN1Cc1cncn1Cc1ccc(C#N)cc1` yielded an IC50 of 21 nM.

`N#Cc1ccc(Cn2ccnc2)cc1Oc1cccc(C2CCCCNC2=O)c1` (stereo not given) showed an IC50 of 41 nM.

As to `O=C1CN(Cc2cncn2Cc2cccc(Oc3ccccc3)c2)CCN1c1ccc(C(F)(F)F)cc1`, the IC50 was 5800 nM.

`Cn1cncc1C(OCc1ccc(C#N)cc1NC(=O)c1ccccc1)c1ccc(C#N)cc1` (stereo not given) returned an IC50 of 5 nM.

Compound `CCCC[C@H]1CN(c2ccc(Cl)cc2)C(=O)CN1Cc1cncn1Cc1ccc(C#N)cc1` returned an IC50 of 0.44 nM.

`CC[C@@H](C)[C@@H](CO[C@@H](Cc1ccccc1)C(=O)N[C@@H](CCS(C)(=O)=O)C(=O)OC)NC[C@@H](N)CS` returned an IC50 of 240 nM.

Take `CN1CCN(C(=O)c2cn(Cc3cncn3Cc3ccc4c(c3)OCO4)cc2-c2cccc3ccccc23)CC1`: it took 2.4 nM to reach half-maximal inhibition (IC50).

Compound `COC(=O)[C@H](CCSC)NC(=O)c1cccc2cc(NC[C@H](N)CS)ccc12` returned an IC50 of 500 nM.

Turning to `CC[C@@H](C)[C@@H](CN(CC(=O)N[C@@H](CCSC)C(=O)O)Cc1cccc2ccccc12)NC(=O)Cc1cncn1Cc1ccc(C#N)cc1`, the IC50 is 0.15 nM.

The compound `O=C(Cc1ccncc1)N1CCN([C@H]2c3ccc(Cl)cc3CCc3cccnc32)CC1` had an IC50 of 140 nM.

`CC[C@]1(c2cccc(Oc3cc([C@@](C)(N)c4cncn4C)ccc3C#N)c2)CCCCN(C)C1=O` had an IC50 of 1.5 nM.

With `CC[C@@H](C)[C@@H](CN(CC(=O)N[C@@H](CCSC)C(=O)O)Cc1cccc2ccccc12)NC(=O)Cc1cn(Cc2ccncc2)cn1`, 74 nM corresponded to half-maximal inhibition (IC50).

Compound `CC(C)CCCC(C)C1CCC2C3C(CC[C@]12C)[C@@](C)(C[C@@H](CC(=O)O)C(=O)O)C(=O)C[C@@H]3C` (stereo not given in full) displayed an IC50 of 40 nM.

For the compound `CSCC[C@H](NC(=O)c1cccc2cc(NC[C@H](N)CS)ccc12)C(=O)O`, the IC50 was found to be 18 nM.

As for `CN1CCC(C2c3ccccc3CCc3cccnc32)CC1` (stereo not given), the IC50 stood at 720000 nM.

`Fc1ccc2c(c1)[C@@H](OCc1ccc(Cl)cc1Cl)[C@@H](Cn1ccnc1)S2` returned an IC50 of 700 nM.

The values are drawn from ChEMBL document CHEMBL1140594, “Farnesyltransferase pharmacophore model derived from diverse classes of inhibitors” (Bioorg Med Chem Lett, 2007).
